The source of these data is patent publication US20140378529A1, “COLLATERAL GENE INACTIVATION BIOMARKERS AND TARGETS FOR CANCER THERAPY” (Board Regents, The University of Texas System, priority 2011, published 2014).

For data set [1] the following is noted: Table 5, cited from earlier work.
Another data set deals with enolase. Particulars: cited from earlier work.
Another data set concerns enolase 2 protein. Nature of the data set: shRNA knockdown of ENO2 expression (western blot). The class given is cell-based, human. The settings on record: pGIPZ vector; D423-MG and D502-MG; vs shNT. The source says:
Two of these hairpins were in the pLKO.1 vector (ShENO2-1 and shENO2-2) and the remaining two were in the Expression Arrest GIPZ (shENO2-3) and TRIPZ (shENO2-4) shRNAmir vectors (Open Biosystems, Huntsville, Ala.). The hairpin in the GIPZ vector was cloned into the TRIPZ vector using a protocol provided by the manufacturer. The TRIPZ vector is a doxycycline inducible system with a Red fluorescent protein reporter which is only expressed upon doxycycline induction. Recombinant lentivirus was produced by transient transfection of 293T cells following a standard protocol. Briefly, 72 μg of the shRNA plasmid, 54 μg of Delta 8.9 and 18 μg of VSVG plasmids were transfected using Fugene® (Roche, Indianapolis, Ind.) into 293T cells plated in 245 mm2 dishes. Viral supernatant was collected 72 hours after transfection, concentrated by centrifugation at 23,000 rpm and resuspended in cell growth medium. For transduction, viral solutions were added to cell culture medium containing 4 μg/mL polybrene; 48 hours after infection cells were selected using 2 μg/mL puromycin and tested for ENO2 knockdown by western blot.
The hairpin in the GIPZ vector was cloned into the TRIPZ vector using a protocol provided by the manufacturer. The TRIPZ vector is a doxycycline-inducible system with a red fluorescent protein reporter that is expressed only upon doxycycline induction. […]
In general terms: A western blot detects proteins with antibodies after separation by electrophoresis.

A further data set concerns D423-MG ENO1-null cells. Nature of the data set: Soft agar colony formation assay. The data set is classed as cell-based, human. Particulars: vs shNT. As for the experimental part:
Anchorage-independent growth assays were performed in duplicate or triplicate in 6 well plates. 10^4 of indicated cells per well were seeded in DMEM+10% FBS containing 0.4% low-melting agarose on the top of bottom agar containing 1% low-melting agarose DMEM+10% FBS. After 14-21 days, colonies were stained with iodonitrotetrazoliumchloride (Sigma-Aldrich) and counted.
Cell growth of shRNA- or PhAH-treated cell lines was assayed either through crystal violet staining or using the Promega CellTiter-Glo proliferation kit (Roche) or alternatively, in vivo, by measuring confluence with the IncuCyte (Essen BioScience). Growth curves using the IncuCyte were generated by imaging every 2 hours with quadruplicate replicates. For crystal violet assays, 10^4 cells were seeded in a 6-well plate for each time point. […] Dye extraction was performed using 10% acetic acid solution, and absorbance was read at 590 nm. CellTiter-Glo experiments were performed according to the manufacturer's instructions; 10^3 cells/well were plated in a 96-well plate for each time point, and luminescence readings were taken every 24 h. […] Soft agar (anchorage-independent) growth was monitored in 6-well plates seeded with 10^4 cells of the indicated genotype. […] Growth was monitored by fluorescence (GFP) and after 28 days colonies were stained with iodonitrotetrazolium chloride (Sigma-Aldrich) and counted.

In data set [2] the test system is ENO1-null cells (D423-MG, Gli56). The data set can be described thus: Cell growth / toxicity in ENO1-null GBM cells. Particulars: for growth of ENO1-null cells: doxycycline-inducible TRIPZ, D423-MG. The data set is classed as cell-based, human. The procedure: (§1) For crystal violet assays, 10,000 cells were seeded in a 6-well plate for each time point. At the indicated time point, cells were fixed with 10% formalin and stained with crystal violet solution for 1 hour. Dye extraction was performed using 10% acetic acid solution and absorbance was read at 590 nm. Cell titer Glo® experiments were performed as indicated by the manufacturer. 1000 cells/well were plated in a 96 well plate for each time point and luminescence readings were taken every 24 hours. All experiments were performed in triplicate.
(§2) Structure and purity were verified by NMR. […] Given the instability of the compound, media was replaced every 5 days and fresh inhibitor added with fresh media.
Cell growth of shRNA- or PhAH-treated cell lines was assayed either through crystal violet staining or using the Promega CellTiter-Glo proliferation kit (Roche) or alternatively, in vivo, by measuring confluence with the IncuCyte (Essen BioScience). Growth curves using the IncuCyte were generated by imaging every 2 hours with quadruplicate replicates. For crystal violet assays, 10^4 cells were seeded in a 6-well plate for each time point. At the indicated time point, cells were fixed with 10% formalin and stained with crystal violet solution for 1 h. Dye extraction was performed using 10% acetic acid solution, and absorbance was read at 590 nm. CellTiter-Glo experiments were performed according to the manufacturer's instructions; 10^3 cells/well were plated in a 96-well plate for each time point, and luminescence readings were taken every 24 h. All experiments were performed in triplicate. Soft agar (anchorage-independent) growth was monitored in 6-well plates seeded with 10^4 cells of the indicated genotype. The medium contained DMEM with 10% FBS; the top agar contained 0.4% low melting agarose, while the bottom agar contained 1% low melting agarose. Growth was monitored by fluorescence (GFP) and after 28 days colonies were stained with iodonitrotetrazolium chloride (Sigma-Aldrich) and counted.
Structure and purity were verified by NMR. […]

In a further data set the test system is D423-MG cells. Nature of the data set: Orthotopic brain tumor formation. The data set is classed as in vivo, SCID mice. The settings on record: D423-MG injected intracranially; vs shNT. As for the experimental part:
Injection of D423-MG cells was performed as previously described (in Zheng et al., 2008) SCID mice (Charles River) aged 6-12 weeks were placed into stereotactic apparatus equipped with a Z axis (Stoelting). A hole was bored in the skull 0.5 mm anterior and 3.0 mm lateral to the bregma using a dental drill. One hundread thousand cells in Hanks Buffered Salt Solution were injected into the right caudate nucleus 3 mm below the surface of the brain using a 10-μl Hamilton syringe with an unbeveled 30 gauge needle. The scalp was closed using a 9-mm Autoclip Applier. Animals were followed daily for the development of neurological deficits.
The in vivo tumorigenic potential of D423-MG cells transduced with non-targeting hairpin or shENO2-3 delivered through pGIPZ was determined as previously described (Zheng et al., 2008). SCID mice (Charles River) under deep anesthesia were placed into a stereotactic apparatus equipped with a z axis (Stoelting). Then, 3×10^5 cells were injected intracranially into the right caudate nucleus 3 mm below the surface of the brain, using a 10-μl Hamilton syringe. The animals were followed daily for development of neurological deficits. All mice experiments were performed with the approval of the Harvard Cancer Center and Dana-Farber Cancer Institute Institutional Animal Care and Use Committee.

The next data set concerns HMEL cells. The data set can be described thus: Borrelidin growth, HMEL (TARS WT). The class given is cell-based, human. The source says: (§3) The effect of various concentrations of Borrelidin on the growth of the four melanoma cells lines over time was also studied (FIG. 21).
In another data set the test system is 451 Lu cells. Nature of the data set: Borrelidin growth, 451 Lu (TARS deficient). The data set is classed as cell-based, human.
Text: as §3

For data set [3], the system named is SK-MEL-2 cells. Nature of the data set: Borrelidin growth and cytotoxicity, SK-MEL-2 (TARS Het). The data set is classed as cell-based, human. As for the experimental part:
as §3
To this end, the inventors ran the same live growth assay, except starting with a high confluence of SK-MEL-2 cells at time zero. Under these conditions it became apparent that concentrations of Borrelidin at or above 15 nM are cytotoxic to SK-MEL-2 cells, while lower concentrations are growth inhibitory (FIG. 22).

The subject of data set [4] is SK-MEL-2 cells. Particulars: NCI-60 database; cited from earlier work.
Another data set relates to SK-MEL-5 cells. Nature of the data set: Borrelidin growth, SK-MEL-5 (TARS WT). The class given is cell-based, human.
Text: as §3

In another data set the test system is ENO1-null D423-MG cells. Nature of the data set: Relative growth with receptor tyrosine kinase inhibitors or rapamycin. The data set is classed as cell-based, human. Particulars: combination of sorafenib, lapatinib and PHA665752.
Data set [5] concerns ENO1 WT GBM cells and normal astrocytes. The data set can be described thus: Cell growth / toxicity in ENO1 WT GBM cells and normal astrocytes. The class given is cell-based, human. As for the experimental part:
as §1, §2
(§4) Cell growth of shRNA- or PhAH-treated cell lines was assayed either through crystal violet staining or using the Promega CellTiter-Glo proliferation kit (Roche) or alternatively, in vivo, by measuring confluence with the IncuCyte (Essen BioScience). […] Dye extraction was performed using 10% acetic acid solution, and absorbance was read at 590 nm. CellTiter-Glo experiments were performed according to the manufacturer's instructions; 10^3 cells/well were plated in a 96-well plate for each time point, and luminescence readings were taken every 24 h. […] Soft agar (anchorage-independent) growth was monitored in 6-well plates seeded with 10^4 cells of the indicated genotype. […]

For data set [6], the system named is ENO1 heterozygous cells (D502-MG and U343). Nature of the data set: Cell growth / toxicity in ENO1 heterozygous GBM cells. The class given is cell-based, human. As for the experimental part: as §1, §2, §4
The target of another data set is yeast enolase (Saccharomyces cerevisiae, UniProt P00924). Particulars: read-out: inhibitory constant on yeast enolase; Anderson et al., 1984; cited from earlier work.
yeast enolase, sequence (P00924 whole entry): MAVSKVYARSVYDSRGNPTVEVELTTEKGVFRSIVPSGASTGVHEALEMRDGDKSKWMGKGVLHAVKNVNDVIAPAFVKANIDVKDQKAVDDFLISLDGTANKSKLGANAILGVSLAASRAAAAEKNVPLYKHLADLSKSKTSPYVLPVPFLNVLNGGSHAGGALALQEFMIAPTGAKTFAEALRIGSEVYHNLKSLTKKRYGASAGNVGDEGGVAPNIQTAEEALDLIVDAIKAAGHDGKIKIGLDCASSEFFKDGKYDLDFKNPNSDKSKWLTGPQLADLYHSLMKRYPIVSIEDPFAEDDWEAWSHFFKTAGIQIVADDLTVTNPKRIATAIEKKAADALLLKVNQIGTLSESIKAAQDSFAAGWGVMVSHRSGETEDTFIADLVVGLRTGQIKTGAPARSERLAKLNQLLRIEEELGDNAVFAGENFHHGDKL
The mark [7] stands for this setting: Table 5, published enolase inhibitors.
The mark [8] stands for this setting: Table 4, known enolase inhibitors.
[9] abbreviates: printed: SK-MEL-2 cell line, which is also wild-type for TARS.

What is called pKa is the pH at which an ionisable group is half protonated.

Like-named read-outs stand apart in the source and are kept apart here.

Text for ENO1-null D423-MG cells: Given the instability of the compound, the medium was replaced every 5 days and fresh inhibitor added with fresh medium.

Turning to 2-fluoro-2-phosphonoacetohydroxamate, the pKa in [1] was 8.1. Besides, the Ki at enolase (setting [7]) is 1400 nM.

In the case of “5′-CGGCCTTCAACGTGATCAA-3′ (expressed or natural sequence) [shENO2-3]”, the “reduction of expression of ENO2” value in the data set on enolase 2 protein is given as more than 70%. Also, the “soft agar colony formation” value in the data set with D423-MG ENO1-null cells is given as “dramatically decreased”. For the same molecule, the “growth of ENO1-null cells” value in data set [2] is listed as “dramatically inhibited growth”. Also, the cell proliferation result in data set [2] (pGIPZ, only in the context of ENO1 genomic deletion (D423-MG)) is reported as “dramatically slowed”. The “in vivo tumorigenic properties” value with D423-MG cells was “dramatically decreased”.

“5′-GGGACTGAGAACAAATCCA-3′ (expressed or natural sequence) [shENO2-4]”: the “growth of ENO1-null cells” value in data set [2] is listed as “dramatically inhibited growth”.

As for `NC=C(OP(=O)(O)O)C(=O)O` [3-aminoenolpyruvate-2-phosphate], the Ki at enolase (setting [8]) and on enolase (setting [7]) was 100 nM in each case.

`O=[N+]([O-])C(CO)CP(=O)(O)O` (centres unmarked) [(3-hydroxy-2-nitropropyl)phosphonate]: in [1], the pKa is given as 8.1. Besides, the Ki was 1 nM at enolase (setting [8]) and 6 nM on enolase (setting [7]).

As to `O=[N+]([O-])CCP(=O)(O)O` [(nitroethyl)phosphonate], the pKa in [1] is reported as 8.5. In addition, the Ki at enolase (setting [8]) and on enolase (setting [7]) was 1000 nM each time.

As to `C[C@@H]1C[C@H](C)C[C@H](C)[C@@H](O)CC(=O)O[C@H]([C@@H]2CCC[C@H]2C(=O)O)C/C=C/C=C(/C#N)[C@H](O)[C@@H](C)C1` [Borrelidin], in the data set with HMEL cells, the “effect on growth at low concentrations” value is recorded as “minimal to no effect”. In the data set on HMEL cells (62.5 nM), the “sensitivity of growth at the highest tested concentration” value is recorded as “resistant”. In the data set with 451 Lu cells, the “concentration that nearly inhibited growth” value came out at 62.5 nM and the “sensitivity to Borrelidin treatment” value is listed as “intermediate sensitivity”. Further, in the data set on SK-MEL-2 cells [3] (SK-MEL-2), the “effect on growth at low concentrations” value was “stalled the growth” and the “lowest concentration with at least partial sensitivity” value was not below 3.9 nM. Further, in the data set on SK-MEL-2 cells [3] (SK-MEL-2, high confluence at time zero), the cytotoxic concentration is recorded as not below 15 nM. In addition, the “concentration that completely inhibited growth” value in the data set on SK-MEL-2 cells [3] (SK-MEL-2, low initial cell density) is 31.25 nM. Moreover, the “Sensitivity to borrelidin (IC50) in a panel of cancer cell lines” value in the data set with SK-MEL-2 cells [4] is listed as “lowest IC50”. The “effect on growth at low concentrations” value with SK-MEL-5 cells (SK-MEL-5) is “minimal to no effect”. For the same molecule, in the data set on SK-MEL-5 cells (setting [9]), the “sensitivity of growth at 62.5 nM” value is on record as “partially sensitive” and the “sensitivity of growth at concentrations less than 31.25 nM” value was “largely resistant”.

Take `O=CC(OP(=O)(O)O)C(=O)O` [D-tartronate semialdehyde phosphate]: the Ki on enolase (setting [8]) and at enolase (setting [7]) was 10000 nM throughout.

For `F` [Fluoride], the “Ki (M)” value is on record as “Varied depending” at enolase (setting [8]) and “Varied” at enolase (setting [7]).

Consider `Cc1[nH]c(/C=C2\C(=O)Nc3ccc(S(=O)(=O)Cc4c(Cl)cccc4Cl)cc32)c(C)c1C(=O)N1CCC[C@@H]1CN1CCCC1` [PHA665752], for which the “sensitivity of ENO1-null D423-MG cells versus ENO1 WT GBM cell lines” value in the data set with ENO1-null D423-MG cells is listed as “no more sensitive”.

Consider `O=C(CP(=O)(O)O)NO` [PhAH, phosphonoacetohydroxamate], for which the “concentration above which PhAH has more than minimal effect on growth” value in data set [5] was “higher than 50 μM”. For the same molecule, the pKa in [1] (listed as Phosphonoacetohydroxamate) was 10.2. In addition, the “times lower doses for similar growth inhibition compared with normal human astrocytes” value in data set [6] is “about 8 times”. The Ki at yeast enolase is 0.015 nM.

Turning to `CS(=O)(=O)CCNCc1ccc(-c2ccc3ncnc(Nc4ccc(OCc5cccc(F)c5)c(Cl)c4)c3c2)o1` [lapatinib], the “sensitivity of ENO1-null D423-MG cells versus ENO1 WT GBM cell lines” value with ENO1-null D423-MG cells is recorded as “no more sensitive”.

With `CC[C@H]1/C=C/C=C/C[C@@H](C)[C@H](O)[C@@](C)(O)C(=O)[C@@H](C)[C@H](O)[C@@H](C)C(=O)[C@@H](C)[C@H](O)[C@@H](C)/C=C/C(=O)O[C@@H]2[C@H](C)[C@H](CC1)O[C@]1(CC[C@H](C)[C@H](C[C@@H](C)O)O1)[C@H]2C` [oligomycin], the “effect of oligomycin on its own” value in data set [6] (oligomycin 10 nM) is “minimal effects”.

d-(phosphonoethyl)nitrolate: the Ki at enolase (setting [8]) and at enolase (setting [7]) was 14 nM in each case.
